Among the data in ChEMBL document CHEMBL1131703, “Azaindole derivatives with high affinity for the dopamine D4 receptor: synthesis, ligand binding studies and comparison of molecular electrostatic potential maps” (Bioorg Med Chem Lett, 1999) are Ki values, retold here.

The target of one experiment is D(1A) dopamine receptor (Bos taurus, UniProt Q95136). The experiment in a line: Binding affinity was evaluated for the displacement of [3H]-SCH- 23390 against bovine Dopamine receptor D1. (In general: Displacement assays read how much labelled ligand stays bound in the presence of the test substance.)
Sequence of D(1A) dopamine receptor (Q95136 whole entry): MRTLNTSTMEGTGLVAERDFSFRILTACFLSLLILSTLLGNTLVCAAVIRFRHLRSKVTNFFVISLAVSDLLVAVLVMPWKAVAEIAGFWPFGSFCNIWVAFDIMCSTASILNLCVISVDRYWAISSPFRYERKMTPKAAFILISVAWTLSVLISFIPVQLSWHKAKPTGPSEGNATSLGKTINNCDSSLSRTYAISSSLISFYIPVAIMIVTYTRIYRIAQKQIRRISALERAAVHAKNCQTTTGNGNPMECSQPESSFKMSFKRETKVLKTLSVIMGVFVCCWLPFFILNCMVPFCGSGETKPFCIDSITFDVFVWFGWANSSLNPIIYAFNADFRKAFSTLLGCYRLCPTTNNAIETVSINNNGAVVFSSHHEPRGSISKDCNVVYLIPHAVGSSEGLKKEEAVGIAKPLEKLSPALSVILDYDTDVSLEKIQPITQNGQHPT
For a further experiment, the target named is T1, D(4) dopamine receptor (Homo sapiens, UniProt P21917).
T1 sequence (P21917 whole entry): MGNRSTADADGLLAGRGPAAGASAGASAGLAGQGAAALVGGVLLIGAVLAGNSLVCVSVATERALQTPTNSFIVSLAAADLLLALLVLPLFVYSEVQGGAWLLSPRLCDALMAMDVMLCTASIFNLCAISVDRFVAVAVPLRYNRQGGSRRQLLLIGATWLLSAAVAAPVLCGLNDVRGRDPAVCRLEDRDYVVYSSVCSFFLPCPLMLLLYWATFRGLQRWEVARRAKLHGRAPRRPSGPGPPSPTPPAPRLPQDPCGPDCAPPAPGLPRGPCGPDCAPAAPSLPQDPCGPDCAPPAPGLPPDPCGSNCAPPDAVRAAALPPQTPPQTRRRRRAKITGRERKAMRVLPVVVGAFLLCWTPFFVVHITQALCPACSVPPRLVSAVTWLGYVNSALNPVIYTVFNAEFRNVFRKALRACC
The experiment in a line: Binding affinity evaluated for the displacement of [3H]spiperone against human dopamine receptor D4.

The target of a further experiment is D(3) dopamine receptor (Homo sapiens, UniProt P35462). Nature of the experiment: Binding affinity evaluated for the displacement of [3H]-spiperone against human dopamine receptor D3.
Sequence of D(3) dopamine receptor (P35462 whole entry): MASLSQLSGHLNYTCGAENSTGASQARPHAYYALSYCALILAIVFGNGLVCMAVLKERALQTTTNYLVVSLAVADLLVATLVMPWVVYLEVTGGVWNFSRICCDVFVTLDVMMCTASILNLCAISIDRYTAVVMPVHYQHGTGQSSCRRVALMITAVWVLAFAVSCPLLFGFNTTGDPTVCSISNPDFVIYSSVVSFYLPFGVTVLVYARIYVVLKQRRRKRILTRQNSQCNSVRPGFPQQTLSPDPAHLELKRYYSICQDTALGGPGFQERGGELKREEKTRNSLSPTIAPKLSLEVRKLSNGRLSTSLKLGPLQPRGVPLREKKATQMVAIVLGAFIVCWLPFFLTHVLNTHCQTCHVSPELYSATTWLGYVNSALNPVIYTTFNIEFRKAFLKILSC
The next experiment concerns the target D(2) dopamine receptor (Bos taurus, UniProt P20288). The experiment in a line: Binding affinity was evaluated for the displacement of [3H]spiperone against bovine Dopamine receptor D2.

Sequence of D(2) dopamine receptor (P20288 whole entry): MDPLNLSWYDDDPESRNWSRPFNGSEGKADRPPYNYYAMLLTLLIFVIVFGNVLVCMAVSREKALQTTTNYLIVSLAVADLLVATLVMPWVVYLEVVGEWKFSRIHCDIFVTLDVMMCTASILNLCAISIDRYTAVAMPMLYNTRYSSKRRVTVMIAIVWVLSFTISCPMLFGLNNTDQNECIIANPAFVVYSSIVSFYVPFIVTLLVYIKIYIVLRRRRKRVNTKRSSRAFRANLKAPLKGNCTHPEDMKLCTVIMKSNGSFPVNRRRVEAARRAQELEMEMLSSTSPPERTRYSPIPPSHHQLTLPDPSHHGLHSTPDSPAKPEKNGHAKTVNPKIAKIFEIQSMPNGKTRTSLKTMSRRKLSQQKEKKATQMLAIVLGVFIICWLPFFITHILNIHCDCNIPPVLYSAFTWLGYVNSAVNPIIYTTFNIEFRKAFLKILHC

A word on the Ki: it is a dissociation constant, usually derived from enzyme kinetics or from competition with a known ligand. On to `O=C(c1cnn2ccccc12)N1CCN(c2ccc(Cl)cc2)CC1`, for which the Ki at D(1A) dopamine receptor is over 100 µM; at D(4) dopamine receptor, 23 µM; on D(3) dopamine receptor, 61 µM; on D(2) dopamine receptor, 30 µM.
In the case of `Ic1ccc(N2CCN(Cc3cnn4ccccc34)CC2)cc1`, the Ki came to 17 µM on D(1A) dopamine receptor, 0.003 µM on D(4) dopamine receptor, 6.7 µM at D(3) dopamine receptor and 1.4 µM on D(2) dopamine receptor.
